Measurements as given in PMC10697071, “Bio-guided isolation of alpha-glucosidase inhibitory compounds from Vietnamese liverwort Marchantia polymorpha: in vitro and in silico studies” (RSC Advances, 2023).
“Also recorded” adds a separate entry of the source.

Assays:
yeast alpha-glucosidase = test: Alpha-glucosidase inhibition assay; type: biochemical; conditions: for IC50: yeast alpha-glucosidase
From the text: Evaluation of the inhibitory activity of 1–12 against yeast alpha-glucosidase followed a previous procedure.[37]

alpha-glucosidase = test: Kinetic study of alpha-glucosidase inhibition (Lineweaver–Burk plots); type: biochemical
Protocol: To examine the inhibition mechanism, activity at concentrations of 0, 3.61, 7.22, 14.44, and 28.88 μM of 2 was recorded. […] Increasing inhibitor concentrations cause a decrease in the Vmax of α-glucosidase.
The mechanisms of inhibition of alpha-glucosidase by 2 were determined by Lineweaver–Burk plots (Microsoft Excel 2010, Washington, USA), using methods similar to those reported in the literature.[40] Enzyme inhibition due to various concentrations of 2 was evaluated by monitoring the effects of different concentrations of the substrate. For Lineweaver–Burk double reciprocal plots 1/enzyme velocity (1/V) vs. 1/substrate concentration (1/[S]), the inhibition type was determined using various concentrations of pNPG (1 mM, 2 mM, and 4 mM) as a substrate in the presence of different concentrations of the test compound (0, 3.61, 7.22, 14.44, and 28.88 μM for 2). The experiments were carried out in three replicates. The mixtures were incubated at 37 °C, and the optical density was measured at 405 nm every 1 min for 30 min with the ELx800 Absorbance Microplate Reader (BioTek Instruments, Inc., Vermont, USA). The optimal concentrations of the tested compound were chosen based on the IC50 value. The inhibition constants were obtained graphically from secondary plots (Microsoft Excel 2010, Washington, USA).

| Molecule | IC50 (yeast alpha-glucosidase) [µM] | other results |
| --- | --- | --- |
| Oc1cc2cc(c1O)Oc1ccc(cc1)CCc1cccc(O)c1Oc1cccc(c1)CC2 [Compound 1, Marchantin A] | 57.3 ± 1.9 | – |
| Oc1cccc2c1Oc1cccc(c1)CCc1cc(c(O)c(O)c1Br)Oc1ccc(cc1)CC2 [Compound 1a, 5′-Bromomarchantin A] | 151 ± 2.9 | Alpha-glucosidase inhibition (in words) (yeast alpha-glucosidase; qualitative statement): weaker activity than the parent compound 1 |
| Oc1ccc2cc1Oc1ccc(cc1)CCc1ccc(c(O)c1)-c1c(O)cccc1CC2 [Compound 2, Isoriccardin C] | 28.9 ± 0.2 | Type of inhibition (alpha-glucosidase; Lineweaver–Burk plots, same Km, decreasing Vmax): non-competitive inhibitor; also recorded: non-competitive type; Ki (alpha-glucosidase; pNPG substrate 1, 2, 4 mM, 37 °C, secondary plot of slope versus concentration, read-out: Ki (inhibition constant)): 67.1 ± 1.28 µM |
| Oc1ccc2c(c1)CCc1ccc(cc1)Oc1cc(ccc1O)CCc1ccc-2c(O)c1 [Compound 3, Riccardin C] | 42.2 ± 1.4 | – |
| COC1Cc2cccc(c2)Oc2c(ccc(O)c2O)CCc2ccc(cc2)Oc2cc1cc(O)c2O (stereo not drawn) [Compound 4, Marchantin K] | 131 ± 3 | – |
| Oc1ccc(CCc2cccc(O)c2)cc1 [Compound 5, Lunularin] | 130 ± 2 | – |
| COc1cc(OC)c2c(c1)[C@@H](Cc1ccc(OC)c(OC)c1)OC2=O [Compound 6, 3R-(3,4-Dimethoxybenzyl)-5,7-dimethoxyphthalide] | > 200 | – |
| COc1cc(OC)c2c(c1)[C@H](Cc1cc(OC)c(OC)c(OC)c1)OC2=O [Compound 7, Marchatoside] | > 200 | – |
| CC1(C)CC[C@]2(C)CC[C@]3(C)C(=CCC4[C@@]5(C)CCC(=O)C(C)(C)C5CC[C@]43C)C2C1 (stereo partly drawn) [Compound 10, 12-Oleanene-3-one] | 75.1 ± 1.8 | – |
| C[C@@H]1CC[C@]2(C(=O)O)CC[C@]3(C)C(=CC(=O)C4[C@@]5(C)CCC(=O)C(C)(C)C5CC[C@]43C)C2[C@H]1C (stereo partly drawn) [Compound 11, 3,11-Dioxoursolic acid] | 101 ± 3 | – |
| C[C@H]1[C@H](C)CC[C@]2(C(=O)O)CC[C@]3(C)C(=CC[C@@H]4[C@@]5(C)CC[C@H](O)C(C)(C)[C@@H]5CC[C@]43C)[C@H]12 [Compound 12, Ursolic acid] | 86 ± 6.9 | – |
| Vitexilactone [Compound 9] | > 200 | – |
